Laboratory results: PubChem BioAssay (NCI)
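Cultured in 96-well plates, cells were exposed to test compound for 48 hours across five concentrations. At the TGI there is no net growth.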

Experiments:
Assay in all cases: NCI anticancer screen, dose series, 48 h
OVCAR-4 ovarian = system: OVCAR-4 ovarian
OVCAR-5 ovarian = system: OVCAR-5 ovarian
NCI-H460 lung = system: NCI-H460 lung
SR leukemia = system: SR leukemia
SK-MEL-5 melanoma = system: SK-MEL-5 melanoma
HOP-92 NSCLC = system: HOP-92 NSCLC
MCF7 breast = system: MCF7 breast
IGROV1 ovarian = system: IGROV1 ovarian
A549 NSCLC = system: A549 NSCLC
MDA-MB-231 breast = system: MDA-MB-231 breast
SW-620 colon = system: SW-620 colon
SK-MEL-28 melanoma = system: SK-MEL-28 melanoma
SNB-19 CNS = system: SNB-19 CNS
NCI-H226 lung = system: NCI-H226 lung
K-562 leukemia = system: K-562 leukemia
SF-295 CNS = system: SF-295 CNS
SN12C renal = system: SN12C renal
NCI-H23 lung = system: NCI-H23 lung
HCC-2998 colon = system: HCC-2998 colon
COLO 205 colon = system: COLO 205 colon
HCT-15 colon = system: HCT-15 colon
LOX IMVI melanoma = system: LOX IMVI melanoma
SK-OV-3 ovarian = system: SK-OV-3 ovarian
RXF 393 renal = system: RXF 393 renal
HT29 colon = system: HT29 colon
OVCAR-3 ovarian = system: OVCAR-3 ovarian
DU-145 prostate = system: DU-145 prostate
UACC-257 melanoma = system: UACC-257 melanoma
M14 melanoma = system: M14 melanoma
TK-10 renal = system: TK-10 renal
MDA-N = system: MDA-N
CAKI-1 renal = system: CAKI-1 renal
CCRF-CEM leukemia = system: CCRF-CEM leukemia
EKVX NSCLC = system: EKVX NSCLC
SF-268 CNS = system: SF-268 CNS
A498 renal = system: A498 renal
NCI-H522 lung = system: NCI-H522 lung
UO-31 renal = system: UO-31 renal
KM12 colon = system: KM12 colon
HS 578T breast = system: HS 578T breast
RPMI-8226 leukemia = system: RPMI-8226 leukemia
HOP-62 NSCLC = system: HOP-62 NSCLC
UACC-62 melanoma = system: UACC-62 melanoma
U251 CNS = system: U251 CNS
NCI/ADR-RES ovarian = system: NCI/ADR-RES ovarian
ACHN renal = system: ACHN renal
HCT-116 colon = system: HCT-116 colon
SF-539 CNS = system: SF-539 CNS
786-0 renal = system: 786-0 renal
SK-MEL-2 melanoma = system: SK-MEL-2 melanoma
PC-3 prostate = system: PC-3 prostate
OVCAR-8 ovarian = system: OVCAR-8 ovarian
MOLT-4 leukemia = system: MOLT-4 leukemia

COc1c2c(cc3nc4ccccc4nc13)CC[C@H](NC(C)=O)c1cc(=O)c(SC)ccc1-2
TGI (OVCAR-4 ovarian): 38.7 µM
TGI (OVCAR-5 ovarian): > 100 µM
TGI (NCI-H460 lung): > 100 µM
TGI (SR leukemia): > 32.5 µM
TGI (SK-MEL-5 melanoma): 10.8 µM
TGI (HOP-92 NSCLC): > 55.9 µM
TGI (MCF7 breast): > 100 µM
TGI (IGROV1 ovarian): 4.36 µM
TGI (A549 NSCLC): > 100 µM
TGI (MDA-MB-231 breast): 36.1 µM
TGI (SW-620 colon): > 100 µM
TGI (SK-MEL-28 melanoma): > 100 µM
TGI (SNB-19 CNS): > 100 µM
TGI (NCI-H226 lung): 32.2 µM
TGI (K-562 leukemia): > 42.2 µM
TGI (SF-295 CNS): > 44.6 µM
TGI (SN12C renal): 34.2 µM
TGI (NCI-H23 lung): 0.777 µM
TGI (HCC-2998 colon): > 24.6 µM
TGI (COLO 205 colon): 3.31 µM
TGI (HCT-15 colon): 19 µM
TGI (LOX IMVI melanoma): > 71.6 µM
TGI (SK-OV-3 ovarian): > 70.9 µM
TGI (RXF 393 renal): > 49.9 µM
TGI (HT29 colon): 6.23 µM
TGI (OVCAR-3 ovarian): > 100 µM
TGI (DU-145 prostate): 51.3 µM
TGI (UACC-257 melanoma): 30.5 µM
TGI (M14 melanoma): 19.3 µM
TGI (TK-10 renal): > 59.3 µM
TGI (MDA-N): 0.329 µM
TGI (CAKI-1 renal): > 42.6 µM
TGI (CCRF-CEM leukemia): > 100 µM
TGI (EKVX NSCLC): 8.63 µM
TGI (SF-268 CNS): > 56.5 µM
TGI (A498 renal): > 90.9 µM
TGI (NCI-H522 lung): 1.69 µM
TGI (UO-31 renal): 28.7 µM
TGI (KM12 colon): 3 µM
TGI (HS 578T breast): 0.7 µM
TGI (RPMI-8226 leukemia): > 100 µM
TGI (HOP-62 NSCLC): > 100 µM
TGI (UACC-62 melanoma): 44.6 µM
TGI (U251 CNS): 10.6 µM
TGI (NCI/ADR-RES ovarian): > 100 µM
TGI (ACHN renal): > 64.5 µM
TGI (HCT-116 colon): 27.3 µM
TGI (SF-539 CNS): 5.28 µM
TGI (786-0 renal): 39.8 µM
TGI (SK-MEL-2 melanoma): > 55.2 µM
TGI (PC-3 prostate): > 69.6 µM
TGI (OVCAR-8 ovarian): > 32.7 µM
TGI (MOLT-4 leukemia): > 65.4 µM
